Reference: publication PMC5259791 (Scientific Reports, 2017)

Columns and labels:
Hsp60 = biological target: T1, Hsp60 (Homo sapiens, UniProt P10809); assay: SPR on immobilized Hsp60; format: binding
T1 construct: purchased Tebu-Bio
Experimental: Conversely, no affinity of the diterpene towards Hsp60 was observed (Fig. 2c).
SPR analyses were carried out on a BIACORE 3000 instrument (GE-Healthcare). PPARα, PPARγ, PPARδ and HSP60 surfaces were prepared on research−grade CM5 sensor chips (GE Healthcare). Proteins (100 μg/ml in 10 mM CH3COONa, pH 5.0) were immobilized using a standard amine−coupling protocol, to obtain densities of 3–5 kRU. Testing compounds were dissolved in 100% DMSO to obtain 4 mM solutions, and then diluted in PBS containing variable amounts of DMSO, achieving a final DMSO concentration of 0.1%. For each molecule a five−point concentration series (25 nM, 65 nM, 150 nM, 400 nM, 1 μM) was set up. SPR experiments and data elaboration were carried out as reported elsewhere.

wild-type PPARγ1 = biological target: T2, wild-type PPARγ1 (Homo sapiens, UniProt P37231); assay: PPRE-luciferase transactivation in HEK293T cells co-transfected with wild-type PPARγ1; format: cell-based; details: wild type receptor, 24 h
T2 construct: expressed in transfected cells; host or cells: HEK293T (transient); vectors from Takuma Shiraki
T2 sequence (P37231 1-477 isoform P37231-2): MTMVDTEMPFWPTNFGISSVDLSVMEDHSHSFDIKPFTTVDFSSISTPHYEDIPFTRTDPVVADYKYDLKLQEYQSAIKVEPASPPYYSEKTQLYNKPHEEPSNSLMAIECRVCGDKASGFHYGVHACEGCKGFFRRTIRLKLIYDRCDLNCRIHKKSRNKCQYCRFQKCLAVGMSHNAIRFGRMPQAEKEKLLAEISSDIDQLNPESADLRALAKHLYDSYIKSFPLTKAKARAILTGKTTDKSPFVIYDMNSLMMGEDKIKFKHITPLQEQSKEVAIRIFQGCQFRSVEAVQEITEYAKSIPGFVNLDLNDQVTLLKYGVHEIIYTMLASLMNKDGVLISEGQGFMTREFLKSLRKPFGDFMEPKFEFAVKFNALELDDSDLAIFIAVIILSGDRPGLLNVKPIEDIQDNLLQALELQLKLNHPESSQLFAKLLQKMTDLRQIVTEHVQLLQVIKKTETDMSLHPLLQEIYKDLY
From the text: Luciferase activity is reported as fold-induction after normalization to β-galactosidase activity used as control for transfection efficiency. […] (b) Human HEK293T cells were co-transfected with the PPRE-luciferase reporter gene and the wild-type PPARγ1 or its mutant version (C285A). […] Luciferase activity is reported as fold-induction after normalization to β-galactosidase activity used as control for transfection efficiency.
To this goal we transiently transfected basal HEK293T cells with the PPRE-TK-luciferase-reporter plasmid along with the expression vector for the wild-type PPARγ1 or the mutant version carrying the C285A substitution.
HEK293 cells that stably express an exogenous Flag-tagged PPARγ from a transfected PCDNA-3 vector carrying a complete PPARγ cDNA were used for transfection experiments. The PPRE-Luc plasmid contains a luciferase reporter gene under the transcriptional control of three copies of the PPRE (Peroxisome Proliferator Response Element) derived from Acyl-CoA oxidase gene fused upstream to the herpes simplex thymidine kinase (TK) promoter, as described. The RSV-βGal plasmid, expressing β-galactosidase gene, driven by the strong Rous Sarcoma Virus (RSV) promoter/cassette was used as an internal control for transfection efficiency. Transient transfection assays were carried out as described in ref. [44]. […]

HT-29 cells = assay: HT-29 cell growth (cell counting)
Experimental: Data are the mean ± SD of three independent experiments performed in duplicate giving similar results. Significance is indicated as *p ≤ 0.05, **p ≤ 0.01 and ***p ≤ 0.001. (b) HT29 cells were seeded in 24-well in order to reach the density of cells/cm^2 in standard conditions (10^5 cells). […] The experiments were performed in triplicate and the data expressed as mean ± SD. Significance is indicated as **p ≤ 0.01 and ***p ≤ 0.001.

T1 sequence (P10809 27-573): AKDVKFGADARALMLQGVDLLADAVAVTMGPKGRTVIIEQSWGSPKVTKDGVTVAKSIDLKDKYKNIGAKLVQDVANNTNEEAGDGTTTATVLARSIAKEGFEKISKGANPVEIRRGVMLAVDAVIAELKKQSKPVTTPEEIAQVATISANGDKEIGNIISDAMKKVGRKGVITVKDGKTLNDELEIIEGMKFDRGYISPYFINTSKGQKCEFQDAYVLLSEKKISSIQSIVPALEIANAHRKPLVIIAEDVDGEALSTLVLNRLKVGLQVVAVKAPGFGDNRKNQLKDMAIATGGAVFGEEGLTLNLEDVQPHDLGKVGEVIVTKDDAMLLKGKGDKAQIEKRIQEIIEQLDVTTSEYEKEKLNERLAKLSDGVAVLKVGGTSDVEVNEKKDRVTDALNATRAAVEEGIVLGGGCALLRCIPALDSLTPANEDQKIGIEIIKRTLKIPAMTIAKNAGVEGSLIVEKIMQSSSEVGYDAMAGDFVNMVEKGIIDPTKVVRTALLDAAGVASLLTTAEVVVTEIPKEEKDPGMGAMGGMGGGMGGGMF

**Q.** `C=C1C(=O)C23CCC4C(C(=O)OC)CC(O)CC4(C)C2CCC1C3` (stereo not shown) [Compound 1, 15-ketoatractyligenin methyl ester] was tested. Which “affinity towards Hsp60” value (Hsp60) did it give?
**A.** The value was “no affinity”.

**Q.** What about the “luciferase activity less than Rosiglitazone” value (wild-type PPARγ1) of the same molecule?
**A.** The value was 40%.

**Q.** And the “inhibition of cell growth” value (HT-29 cells; 1, 5 and 10 μM for 24 and 48 h)?
**A.** Its value is “more pronounced dosage-dependent inhibition of cell growth than Rosiglitazone”.

**Q.** And the “cell counts after GW9662 pre-treatment versus compound alone” value (HT-29 cells; GW9662 10 μM 6 h, then compound 10 μM for 24 and 48 h)?
**A.** Its value is “increased cell counts”.
